Laboratory results taken from patent US20060233861A1, “Modulation of atp production or content in the hypothalamus” (priority 2003, published 2006).
pIC50: −log10 of the molar value.

Legend:
[1] = system: fetal rat hypothalamic neurons; assay: ATP content in cultured fetal hypothalamic neurons (Enliten ATP Assay); type: cell-based; details: for increase of ATP content: 30 minute incubation in vitro
Na/K ATPase [2] = assay: 86-Rubidium uptake in cultures of fetal rat hypothalamic neurons; type: cell-based; details: for effect on ouabain inhibition of 86-Rb uptake: preincubated 10 min, then ouabain 1000 nM
[3] = system: hypothalamus (ATP content); assay: ATP content in hypothalamic slice punches after ICV injection in rats; type: in vivo, rat; details: rats on normal (ad lib) diet, ICV 40 nmoles, punches 24 hours later, P<0.05
Protocol: In several experiments, to determine subsequent effects on food intake, hypothalamic Na/K ATPase activity or ATP content, the animals were administered the test compounds by ICV injection. Animals were anesthetized with sodium barbiturate (6 mg/100 g BW). Under stereotaxic fixation (David Kopf), with aseptic technique, a 25 ul Hamilton micro syringe (Reno, Nev.) needle tip was inserted according to the published references: 2 mm lateral to the middline at the bregma; −4.3 mm to the bregma; 5.5 mm deep to the dura; −1.3 mm with the shaft inclined medially at 13° […]. to the vertical. […] All injections were calculated and expressed in absolute amount, i.e. nmoles. […]
Following extraction, the content of ATP in these slice punches was measured by the Enliten™ ATP Assay system (see below). […]
As described above, hypothalamic tissues after removal or removal/incubation were transferred to 1.5 ml Eppendorf tubes with 50 μl TCA (5%) and immediately homogenated with a plastic homogenizer. […] ATP was measured according to the kit protocol. […] Light photons were measured by a luminometer and were compared with an ATP standard curve to calculate ATP concentration. […] ATP content is expressed as moles per mg protein for tissue samples, moles per 5 mg tissue for section punches, and as moles per neuron culture well; expressed in appropriate quantitative units for each experiment. […]

Na/K ATPase [4] = assay: Competitive binding / Na/K ATPase activity in membrane concentrates from brain, kidney and gut; type: biochemical
rats (food intake) [5] = details: ICV, depending on dose
ouabain receptors = assay: 3H-ouabain binding in cultured fetal rat hypothalamic neurons (whole cell); details: whole cell hypothalamic culture
Source text: This binding was unaffected and in some experiments appeared to actually increase during exposure to Compound (1). Compound (2) was not tested.

[6] = system: ATP-sensitive K+ channels; assay: Electrophysiological recordings in hypothalamic slices (glucose sensitive neurons); type: cell-based; details: hypothalamic slice recordings
Na/K ATPase [7] = assay: 86-Rubidium uptake into incubated rat hypothalamic slice punches; type: cell-based; details: for effect of agent alone on 86Rb uptake: Compound (1) at up to 5000 nM
Protocol: The whole brain was removed from the skull and inserted into a Precision Brain Slicer (RMB 3000C, Braintree Scientific INC.). As scaled from the rear, a brain slice was removed between the 8 and 10 scale (about 2 mm). The medial-basal hypothalamus was punched using a round mouth #18 1 mm diameter needle with attached syringe. The tissue included most of arcuate nucleus of the hypothalamus and a small part of nucleus paremamillaris ventralis. The tissue was pushed into 0.5 ml DMEM medium in a 24 well cell culture plate. Following preincubation at 37° C., in air/5% CO2 for 30 min., concentrations of test Compound were added for an additional 30 min. Finally, 86-rubidium- (^86Rb) 1 μCi was added to each well for 20 minutes at room temperature. The tissue was then transferred to tubes with a protein dialysis solution to dissolve protein. Five (5) ml scintillation liquid was added to each tube and the photoemissions determined in a β-counter (Beckman).

[8] = system: hypothalamus (ATP content); details: rats treated with supraphysiological doses of triiodothyronine (T3), ICV; cited from earlier work
rats (food intake) [9] = assay: Effect of ICV or i.p. administration of test compounds on rat food intake

Row | SMILES | increase of ATP content ([1]; 500 nM alone) | increase of ATP content ([1]; 500 nM in combination with ouabain) | effect of agent alone on 86-Rb uptake (Na/K ATPase [2]; hypothalamic neuron culture) | concentrations at which reduction of ouabain inhibition of 86-Rb uptake was observed (Na/K ATPase [2]; hypothalamic neuron culture, ouabain 1000 nM) | effect on ouabain inhibition of 86-Rb uptake (Na/K ATPase [2]; hypothalamic neuron culture) | effect on hypothalamic ATP content [3] | binding to / inhibition of activity of membrane extracts enriched with Na/K ATPase (Na/K ATPase [4]) | duration of effect on food intake (rats (food intake) [5]) | effect on tritiated (3H) ouabain binding (ouabain receptors) | effect on ATP-sensitive K+ channels [6] | effect of agent alone on 86Rb uptake (Na/K ATPase [7]) | effect on the inhibitory effect of ouabain on 86Rb uptake (Na/K ATPase [7]; with ouabain) | effect on apparent hypothalamic ATP deficit [8] | effect on food intake after i.p. injection (rats (food intake) [9]; 20 nmoles administered once i.p. (data not shown)) | effect on food intake at lowest dose (rats (food intake) [9]; ICV, 0.04 nmoles) | effect on subsequent 24 hour food intake (rats (food intake) [9]; ICV, approximately 40 nmoles in DMSO) | effect on ATP content ([1]; hypothalamic culture, ouabain alone) | pIC50 (Na/K ATPase [2]; fetal rat hypothalamic neuron culture, 10 to 100,000 nM tested, approximate, read-out: IC50 for 86Rb uptake) | behavioural effect observed (rats (food intake) [9]; ICV, approximately 8 nmoles in 4 μl DMSO) | effect on food intake (rats (food intake) [9]; ICV, approximately 8 nmoles in 4 μl DMSO (results not shown))
1 | C/C=C(\C)C(=O)O[C@@H]1CC2C(CC=C3C[C@@H](OC4CC(OC)C(OC5CC(OC)C(OC6OC(C)C(O)C(OC)C6O)C(C)O5)C(C)O4)CC[C@@]32C)[C@@]2(O)CC[C@H](C(C)=O)[C@@]12C (stereo partly drawn) [Compound (1), tri-rhabinoside, 14-0H, 12-tigloyl pregnane steroidal glycoside] | up to 2 fold | up to 2 fold | had no effect | 5 to 500 nM | significantly reduced the inhibition | increased hypothalamic ATP content | does not bind to or inhibit activity | 24 to 48 h | unaffected | activate (close) | had no effect | almost completely blocked | partially reversed | did not significantly reduce food intake | significant but relatively minor effect |  |  |  |  | 
2 | C/C=C(\C)C(=O)O[C@@H]1CC2C(CC=C3C[C@@H](O)CC[C@@]32C)[C@@]2(O)CC[C@H](C(C)=O)[C@@]12C (stereo partly drawn) [Compound (2)] |  |  |  |  | had no effect |  |  |  |  |  |  |  |  |  |  | altered subsequent 24 hour food intake |  |  |  | 
3 | C[C@@H]1O[C@@H](O[C@H]2C[C@@H](O)[C@]3(CO)[C@H]4[C@H](O)C[C@]5(C)[C@@H](C6=CC(=O)OC6)CC[C@]5(O)[C@@H]4CC[C@]3(O)C2)[C@H](O)[C@H](O)[C@H]1O [Ouabain, ouabain, reference compound] |  |  | […] |  |  |  |  |  | specifically inhibited |  | inhibited |  |  |  |  |  | had no effect or slightly reduced ATP content | […] | motor hyperactivity | no consistent effect on food intake
